From ChEMBL document CHEMBL1201862, “PubChem BioAssay data set” (2004)
Calls of active or inactive are those of the source.

What was measured:
Format in all cases: functional
[1] = biological target: Multidrug resistance protein CDR2 (Candida albicans (strain SC5314 / ATCC MYA-2876) (Yeast), UniProt P78595); experiment: inhibition of Nile Red efflux via Candida CDR2 – S. cerevisiae AD1-8u, singleplex, Cherry Pick1 hits, dose response (AID 588604)
[2] = biological target: Multidrug resistance protein CDR1 (Candida albicans, UniProt P43071); experiment: inhibition of Nile Red efflux via Candida CDR1 – S. cerevisiae AD1-8u, singleplex, Cherry Pick1 hits, dose response (AID 588606)
[3] = biological target: Benomyl/methotrexate resistance protein (Candida albicans, UniProt P28873); experiment: Candida albicans Mdr1 pump inhibition curves – singleplex, Cherry Pick1 hits, dose response (AID 588608)
Benomyl/methotrexate resistance protein, sequence (P28873 whole entry): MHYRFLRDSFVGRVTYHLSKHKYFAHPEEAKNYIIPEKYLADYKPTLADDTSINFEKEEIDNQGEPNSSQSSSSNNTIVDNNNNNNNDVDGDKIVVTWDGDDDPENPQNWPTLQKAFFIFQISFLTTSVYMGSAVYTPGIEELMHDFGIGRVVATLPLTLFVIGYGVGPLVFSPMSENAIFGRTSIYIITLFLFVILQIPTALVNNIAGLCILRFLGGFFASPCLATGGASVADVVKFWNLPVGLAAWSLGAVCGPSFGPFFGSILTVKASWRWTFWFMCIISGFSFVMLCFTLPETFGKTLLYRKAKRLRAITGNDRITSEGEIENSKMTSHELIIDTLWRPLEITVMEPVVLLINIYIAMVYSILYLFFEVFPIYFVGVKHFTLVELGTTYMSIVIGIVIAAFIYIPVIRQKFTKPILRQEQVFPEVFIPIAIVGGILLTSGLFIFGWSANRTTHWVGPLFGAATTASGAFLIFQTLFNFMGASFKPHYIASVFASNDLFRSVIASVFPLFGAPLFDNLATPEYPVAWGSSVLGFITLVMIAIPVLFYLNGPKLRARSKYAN

[4] = biological target: Melanin-concentrating hormone receptor 1 (Homo sapiens, UniProt Q99705); experiment: Late-stage fluorescence-based counterscreen for antagonists of the G-protein coupled receptor 7 (GPR7): cell-based dose response assay to identify antagonists of the melanin-concentrating hormone receptor 1 (MCHR1) Set 5.
[5] = biological target: Neuropeptides B/W receptor type 1 (Homo sapiens, UniProt P48145); experiment: human NPBW1 receptor blockade, IC50 – cell-based, fluorescence, dose response, set 5, late-stage follow-up (AID 588566)
[6] = biological target: Aurora kinase B (Homo sapiens, UniProt Q96GD4)
[7] = biological target: Death-associated protein kinase 3 (Homo sapiens, UniProt O43293);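 note: measured as one member of a kinome-wide profiling panel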
[8] = biological target: Dual specificity protein kinase CLK4 (Homo sapiens, UniProt Q9HAZ1)
[9] = biological target: Fibroblast growth factor receptor 1 (Homo sapiens, UniProt P11362)
Fibroblast growth factor receptor 1, sequence (P11362 whole entry): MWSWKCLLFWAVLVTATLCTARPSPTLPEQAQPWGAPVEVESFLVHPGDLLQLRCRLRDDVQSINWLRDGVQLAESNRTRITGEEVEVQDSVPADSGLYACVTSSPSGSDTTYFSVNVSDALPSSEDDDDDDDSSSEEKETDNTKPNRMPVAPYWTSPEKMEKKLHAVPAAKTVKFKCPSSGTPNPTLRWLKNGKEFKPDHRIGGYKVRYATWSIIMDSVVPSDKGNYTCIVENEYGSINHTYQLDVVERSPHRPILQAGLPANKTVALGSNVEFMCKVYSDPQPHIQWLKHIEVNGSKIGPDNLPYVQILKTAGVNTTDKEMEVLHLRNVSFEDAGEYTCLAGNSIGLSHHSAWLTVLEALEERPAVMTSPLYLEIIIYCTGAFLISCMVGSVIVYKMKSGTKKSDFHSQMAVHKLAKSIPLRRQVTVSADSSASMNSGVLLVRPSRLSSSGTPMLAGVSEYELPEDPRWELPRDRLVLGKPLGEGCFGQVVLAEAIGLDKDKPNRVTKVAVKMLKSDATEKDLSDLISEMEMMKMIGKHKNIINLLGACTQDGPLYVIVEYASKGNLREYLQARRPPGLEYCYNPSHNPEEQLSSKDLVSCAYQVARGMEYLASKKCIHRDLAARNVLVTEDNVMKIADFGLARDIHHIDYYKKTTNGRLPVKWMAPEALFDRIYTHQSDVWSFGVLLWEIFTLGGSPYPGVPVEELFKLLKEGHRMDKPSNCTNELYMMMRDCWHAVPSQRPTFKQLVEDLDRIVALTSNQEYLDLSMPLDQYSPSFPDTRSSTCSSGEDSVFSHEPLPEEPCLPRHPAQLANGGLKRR

[10] = biological target: Cyclin-dependent kinase 5 (Homo sapiens, UniProt Q00535);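 note: CDK5 measured as one member of a kinase profiling panel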
Cyclin-dependent kinase 5, sequence (Q00535 whole entry): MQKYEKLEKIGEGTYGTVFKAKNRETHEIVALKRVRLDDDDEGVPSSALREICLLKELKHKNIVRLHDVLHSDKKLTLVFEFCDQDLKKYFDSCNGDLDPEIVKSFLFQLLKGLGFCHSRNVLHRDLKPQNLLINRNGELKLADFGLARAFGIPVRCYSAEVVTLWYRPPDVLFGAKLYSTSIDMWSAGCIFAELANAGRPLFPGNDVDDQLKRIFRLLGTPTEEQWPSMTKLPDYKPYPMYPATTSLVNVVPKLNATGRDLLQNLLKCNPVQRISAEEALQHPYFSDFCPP

[11] = biological target: Macrophage colony-stimulating factor 1 receptor (Homo sapiens, UniProt P07333);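 note: value comes from the Navigating the Kinome screening panel, CSF1R member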
[12] = biological target: Cyclin-dependent kinase 7 (Homo sapiens, UniProt P50613);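 note: value comes from a kinome-wide kinase profiling panel in which CDK7 is one member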
[13] = biological target: Ribosomal protein S6 kinase alpha-3 (Homo sapiens, UniProt P51812);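 note: measured within a kinome-wide profiling panel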
[14] = biological target: Vascular endothelial growth factor receptor 2 (Homo sapiens, UniProt P35968)
[15] = biological target: T1, Serine/threonine-protein kinase D3 (Homo sapiens, UniProt O94806);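 note: determined within a kinase panel screen, with PRKCN as the panel member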
T1 sequence (O94806 whole entry): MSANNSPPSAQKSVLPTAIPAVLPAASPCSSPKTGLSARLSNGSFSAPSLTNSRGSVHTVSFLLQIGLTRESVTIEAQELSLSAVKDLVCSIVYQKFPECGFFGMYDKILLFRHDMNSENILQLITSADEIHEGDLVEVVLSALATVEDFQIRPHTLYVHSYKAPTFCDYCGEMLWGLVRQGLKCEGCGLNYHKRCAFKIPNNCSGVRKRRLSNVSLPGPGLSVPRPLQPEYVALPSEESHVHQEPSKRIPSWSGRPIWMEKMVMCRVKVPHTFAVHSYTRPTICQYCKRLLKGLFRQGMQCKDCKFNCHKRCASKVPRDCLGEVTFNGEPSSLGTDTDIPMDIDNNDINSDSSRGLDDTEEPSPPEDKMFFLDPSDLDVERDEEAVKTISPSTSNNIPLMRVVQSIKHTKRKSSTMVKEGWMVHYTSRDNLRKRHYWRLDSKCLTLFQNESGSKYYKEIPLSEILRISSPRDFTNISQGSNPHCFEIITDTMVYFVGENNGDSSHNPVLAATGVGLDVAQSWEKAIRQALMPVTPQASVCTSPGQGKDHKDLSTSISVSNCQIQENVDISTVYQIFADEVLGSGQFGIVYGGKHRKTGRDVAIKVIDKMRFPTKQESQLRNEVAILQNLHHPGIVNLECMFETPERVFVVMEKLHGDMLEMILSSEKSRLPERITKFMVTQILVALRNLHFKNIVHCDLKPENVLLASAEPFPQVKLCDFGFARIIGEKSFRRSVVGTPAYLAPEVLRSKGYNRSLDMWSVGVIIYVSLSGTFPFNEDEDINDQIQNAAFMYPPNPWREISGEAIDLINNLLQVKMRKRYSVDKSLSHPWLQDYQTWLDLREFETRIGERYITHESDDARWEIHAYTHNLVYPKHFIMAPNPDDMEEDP

[16] = biological target: Proto-oncogene tyrosine-protein kinase receptor Ret (Homo sapiens, UniProt P07949);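 note: measured within a kinome-wide profiling panel, RET as the panel member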
[17] = biological target: Serine/threonine-protein kinase TBK1 (Homo sapiens, UniProt Q9UHD2); experiment: Navigating the Kinome. Panel member name: TBK1
[18] = biological target: Mitogen-activated protein kinase kinase kinase kinase 4 (Homo sapiens, UniProt O95819)
Mitogen-activated protein kinase kinase kinase kinase 4, sequence (O95819 whole entry): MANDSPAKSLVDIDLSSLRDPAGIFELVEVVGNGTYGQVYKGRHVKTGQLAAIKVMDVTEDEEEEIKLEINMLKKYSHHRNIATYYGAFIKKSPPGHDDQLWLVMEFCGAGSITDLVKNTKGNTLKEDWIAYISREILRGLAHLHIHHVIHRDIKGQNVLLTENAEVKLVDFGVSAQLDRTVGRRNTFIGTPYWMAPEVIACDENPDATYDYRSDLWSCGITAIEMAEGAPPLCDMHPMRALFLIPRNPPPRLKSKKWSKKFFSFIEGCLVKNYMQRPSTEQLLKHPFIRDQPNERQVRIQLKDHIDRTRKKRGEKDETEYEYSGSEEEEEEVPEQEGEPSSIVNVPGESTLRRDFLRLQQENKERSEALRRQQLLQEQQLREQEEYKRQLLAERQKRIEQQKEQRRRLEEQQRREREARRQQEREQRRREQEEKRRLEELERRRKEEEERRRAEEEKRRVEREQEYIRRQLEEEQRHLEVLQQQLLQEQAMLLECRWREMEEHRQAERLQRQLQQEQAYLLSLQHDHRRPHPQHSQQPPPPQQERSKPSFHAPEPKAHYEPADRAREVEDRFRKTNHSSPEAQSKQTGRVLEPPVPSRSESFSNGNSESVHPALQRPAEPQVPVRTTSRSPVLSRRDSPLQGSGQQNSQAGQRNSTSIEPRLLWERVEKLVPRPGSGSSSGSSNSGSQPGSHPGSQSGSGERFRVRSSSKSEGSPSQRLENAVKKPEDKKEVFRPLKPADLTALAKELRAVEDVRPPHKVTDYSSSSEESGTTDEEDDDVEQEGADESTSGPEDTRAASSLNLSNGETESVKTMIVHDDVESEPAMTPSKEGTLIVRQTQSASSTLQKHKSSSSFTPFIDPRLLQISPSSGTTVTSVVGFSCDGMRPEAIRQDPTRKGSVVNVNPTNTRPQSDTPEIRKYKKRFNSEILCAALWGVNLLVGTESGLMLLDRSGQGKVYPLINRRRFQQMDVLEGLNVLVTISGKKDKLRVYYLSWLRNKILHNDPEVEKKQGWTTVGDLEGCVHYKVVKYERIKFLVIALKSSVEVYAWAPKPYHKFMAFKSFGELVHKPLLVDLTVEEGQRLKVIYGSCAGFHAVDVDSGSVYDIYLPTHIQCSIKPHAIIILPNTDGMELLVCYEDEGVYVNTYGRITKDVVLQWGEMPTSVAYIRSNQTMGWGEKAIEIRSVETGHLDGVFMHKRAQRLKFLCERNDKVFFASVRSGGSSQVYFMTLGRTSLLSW

[19] = biological target: Dual specificity tyrosine-phosphorylation-regulated kinase 1B (Homo sapiens, UniProt Q9Y463); experiment: Navigating the Kinome. Panel member name: DYRK1B
[20] = biological target: T2, Tyrosine-protein kinase receptor TYRO3 (Homo sapiens, UniProt Q06418);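 note: TYRO3 value obtained as one member of a kinome-wide profiling panel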
T2 sequence (Q06418 whole entry): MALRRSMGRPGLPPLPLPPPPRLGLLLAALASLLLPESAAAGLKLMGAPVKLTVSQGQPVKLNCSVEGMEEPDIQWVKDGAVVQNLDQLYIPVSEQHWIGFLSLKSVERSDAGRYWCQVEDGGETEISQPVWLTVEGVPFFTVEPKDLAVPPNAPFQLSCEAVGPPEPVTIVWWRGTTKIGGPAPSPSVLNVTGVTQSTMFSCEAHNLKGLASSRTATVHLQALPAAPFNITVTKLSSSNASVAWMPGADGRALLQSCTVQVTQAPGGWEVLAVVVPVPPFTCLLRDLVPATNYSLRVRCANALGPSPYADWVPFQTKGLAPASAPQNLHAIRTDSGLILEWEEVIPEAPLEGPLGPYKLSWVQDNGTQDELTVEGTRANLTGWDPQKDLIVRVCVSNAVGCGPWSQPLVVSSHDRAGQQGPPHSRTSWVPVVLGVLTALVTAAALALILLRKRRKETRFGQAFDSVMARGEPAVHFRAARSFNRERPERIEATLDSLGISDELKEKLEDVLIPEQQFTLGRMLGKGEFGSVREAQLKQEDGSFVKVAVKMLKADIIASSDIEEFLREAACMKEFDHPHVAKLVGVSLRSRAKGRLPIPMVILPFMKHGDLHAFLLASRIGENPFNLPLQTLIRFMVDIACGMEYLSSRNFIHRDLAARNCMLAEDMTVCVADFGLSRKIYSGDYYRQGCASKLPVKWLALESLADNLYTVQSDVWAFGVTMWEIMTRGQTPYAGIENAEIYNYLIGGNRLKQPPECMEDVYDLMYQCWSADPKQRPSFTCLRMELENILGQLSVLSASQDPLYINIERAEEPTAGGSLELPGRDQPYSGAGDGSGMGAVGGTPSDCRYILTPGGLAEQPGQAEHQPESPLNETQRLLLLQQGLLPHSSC

[21] = biological target: Vascular endothelial growth factor receptor 1 (Homo sapiens, UniProt P17948);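 note: measured within a kinome-wide profiling panel, FLT1 as the panel member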
[22] = biological target: ALK tyrosine kinase receptor (Homo sapiens, UniProt Q9UM73);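 note: ALK tested as one member of a kinase panel screen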
[23] = biological target: Casein kinase I isoform alpha (Homo sapiens, UniProt P48729)
[24] = biological target: T3, Serine/threonine-protein kinase Chk1 (Homo sapiens, UniProt O14757);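 note: measured as one member of a kinome-wide kinase profiling panel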
T3 sequence (O14757 whole entry): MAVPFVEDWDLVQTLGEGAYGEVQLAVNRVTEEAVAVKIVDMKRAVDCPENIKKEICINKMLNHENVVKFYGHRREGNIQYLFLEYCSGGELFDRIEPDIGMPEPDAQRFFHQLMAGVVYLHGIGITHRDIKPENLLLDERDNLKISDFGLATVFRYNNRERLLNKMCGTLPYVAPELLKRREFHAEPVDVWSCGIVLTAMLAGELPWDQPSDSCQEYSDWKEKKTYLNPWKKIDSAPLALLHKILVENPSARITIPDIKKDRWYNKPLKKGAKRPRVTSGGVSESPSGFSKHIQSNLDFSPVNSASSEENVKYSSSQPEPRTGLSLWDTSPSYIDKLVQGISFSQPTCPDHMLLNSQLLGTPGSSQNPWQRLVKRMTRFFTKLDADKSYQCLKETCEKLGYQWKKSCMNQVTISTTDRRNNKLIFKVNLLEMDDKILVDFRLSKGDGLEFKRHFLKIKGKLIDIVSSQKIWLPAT

[25] = biological target: Leucine-rich repeat serine/threonine-protein kinase 2 (Homo sapiens, UniProt Q5S007);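 note: value from a broad kinome-wide panel profiling study in which LRRK2 was one of the kinases tested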
[26] = biological target: LIM domain kinase 1 (Homo sapiens, UniProt P53667); experiment: Navigating the Kinome. Panel member name: LIMK1
LIM domain kinase 1, sequence (P53667 whole entry, the tested form may be a part): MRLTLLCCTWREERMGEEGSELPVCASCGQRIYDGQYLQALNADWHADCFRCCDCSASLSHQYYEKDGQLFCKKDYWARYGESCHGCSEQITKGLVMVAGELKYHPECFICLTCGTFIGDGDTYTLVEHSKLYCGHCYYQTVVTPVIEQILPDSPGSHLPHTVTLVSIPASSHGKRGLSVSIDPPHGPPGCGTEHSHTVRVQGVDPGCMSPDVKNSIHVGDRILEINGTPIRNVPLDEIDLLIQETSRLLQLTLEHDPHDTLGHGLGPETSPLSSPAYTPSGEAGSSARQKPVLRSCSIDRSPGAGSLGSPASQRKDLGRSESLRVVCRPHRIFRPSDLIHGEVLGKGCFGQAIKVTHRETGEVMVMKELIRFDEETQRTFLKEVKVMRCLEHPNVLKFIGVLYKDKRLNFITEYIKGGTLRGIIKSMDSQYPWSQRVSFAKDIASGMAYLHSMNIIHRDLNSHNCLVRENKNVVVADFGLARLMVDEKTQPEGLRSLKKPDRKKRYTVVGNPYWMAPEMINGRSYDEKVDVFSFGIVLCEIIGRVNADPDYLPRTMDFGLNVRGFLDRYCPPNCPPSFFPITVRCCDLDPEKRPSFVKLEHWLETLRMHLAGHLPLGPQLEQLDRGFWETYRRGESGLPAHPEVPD

[27] = biological target: Cyclin-dependent kinase 8 (Homo sapiens, UniProt P49336); experiment: Navigating the Kinome. Panel member name: CDK8
Cyclin-dependent kinase 8, sequence (P49336 whole entry): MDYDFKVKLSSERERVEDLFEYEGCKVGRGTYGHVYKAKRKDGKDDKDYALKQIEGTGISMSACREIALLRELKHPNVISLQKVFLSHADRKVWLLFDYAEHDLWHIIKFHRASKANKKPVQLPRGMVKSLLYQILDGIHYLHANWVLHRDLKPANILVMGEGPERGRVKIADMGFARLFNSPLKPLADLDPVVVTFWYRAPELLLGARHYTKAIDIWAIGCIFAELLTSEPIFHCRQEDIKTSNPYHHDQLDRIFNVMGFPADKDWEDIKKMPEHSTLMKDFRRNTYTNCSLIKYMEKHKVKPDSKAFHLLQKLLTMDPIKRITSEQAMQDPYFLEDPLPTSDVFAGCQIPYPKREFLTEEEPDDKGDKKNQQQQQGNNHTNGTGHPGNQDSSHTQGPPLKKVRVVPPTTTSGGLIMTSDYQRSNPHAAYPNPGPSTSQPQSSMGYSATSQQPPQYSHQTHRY

[28] = biological target: Leukocyte tyrosine kinase receptor (Homo sapiens, UniProt P29376); experiment: Navigating the Kinome. Panel member name: LTK
Leukocyte tyrosine kinase receptor, sequence (P29376 whole entry): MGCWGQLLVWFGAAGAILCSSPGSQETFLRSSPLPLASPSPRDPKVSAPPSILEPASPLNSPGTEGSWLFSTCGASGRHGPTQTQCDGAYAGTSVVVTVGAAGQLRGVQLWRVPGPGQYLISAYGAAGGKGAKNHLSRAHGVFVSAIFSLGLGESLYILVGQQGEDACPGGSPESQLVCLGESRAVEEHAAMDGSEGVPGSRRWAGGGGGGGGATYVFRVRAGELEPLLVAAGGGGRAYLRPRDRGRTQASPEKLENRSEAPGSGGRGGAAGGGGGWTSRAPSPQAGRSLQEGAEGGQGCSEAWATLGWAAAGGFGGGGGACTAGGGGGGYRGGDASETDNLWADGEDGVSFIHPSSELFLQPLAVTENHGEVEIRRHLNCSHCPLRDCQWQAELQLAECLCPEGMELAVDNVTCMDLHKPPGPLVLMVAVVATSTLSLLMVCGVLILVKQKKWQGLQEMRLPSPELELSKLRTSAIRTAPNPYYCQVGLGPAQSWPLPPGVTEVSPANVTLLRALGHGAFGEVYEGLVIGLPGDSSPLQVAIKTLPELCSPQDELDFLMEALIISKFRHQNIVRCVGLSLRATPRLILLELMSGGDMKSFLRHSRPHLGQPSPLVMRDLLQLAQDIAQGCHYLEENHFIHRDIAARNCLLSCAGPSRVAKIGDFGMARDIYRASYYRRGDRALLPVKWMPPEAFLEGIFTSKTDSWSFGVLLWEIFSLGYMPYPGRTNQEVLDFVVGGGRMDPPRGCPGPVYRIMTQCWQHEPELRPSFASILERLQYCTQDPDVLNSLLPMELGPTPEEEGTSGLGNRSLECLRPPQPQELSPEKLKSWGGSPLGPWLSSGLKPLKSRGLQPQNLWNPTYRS

Structure (SMILES): COc1cc(OC)cc(-c2sc3ccc(OC)cc3c2-c2ccc(OCCN3CCOCC3)cc2)c1
- EC50 [1]: 38.5 µM (active)
- EC50 [2]: 11.3 µM (active)
- EC50 [3]: 13.7 µM (active)

Structure (SMILES): O=c1c(Cl)c(Oc2ccc3c(c2)OCO3)cnn1Cc1cccc2ccccc12
- IC50 [4]: 17.8 µM (inactive)
- IC50 [5]: 3.3 µM (active)

Structure (SMILES): Nc1ncnc2c1C(=O)NCCN2
- Ki [6]: 31.6 µM (active)
- Ki [7]: 15.8 µM (active)
- Ki [8]: 25.1 µM (active)
- Ki [9]: 100 µM (active)
- Ki [10]: 50.1 µM (active)
- Ki [11]: 79.4 µM (active)
- Ki [12]: 63.1 µM (active)
- Ki [13]: 79.4 µM (active)
- Ki [14]: 12.6 µM (active)
- Ki [15]: 100 µM (active)
- Ki [16]: 31.6 µM (active)
- Ki [17]: 50.1 µM (active)
- Ki [18]: 31.6 µM (active)
- Ki [19]: 39.8 µM (active)
- Ki [20]: 63.1 µM (active)
- Ki [21]: 25.1 µM (active)
- Ki [22]: 63.1 µM (active)
- Ki [23]: 20 µM (active)
- Ki [24]: 25.1 µM (active)
- Ki [25]: 31.6 µM (active)
- Ki [26]: 20 µM (active)
- Ki [27]: 100 µM (active)
- Ki [28]: 39.8 µM (active)
